Experimental data: patent US20250381242A1 (INVAIO SCIENCES, INC., priority 2024, published 2025)
Residues, ends and D or L forms follow the SMILES beside them. No end group written: not given here.

Key:
[1] = test system: X. citri; assay: Bacterial growth inhibition by OD600 absorbance, X. citri; assay type: cell-based, X. citri subsp. citri (ATCC 49118); settings: peptide 10 μM, 24 hours at 30° C., OD 600 nm
Protocol: (§1) Antimicrobial activity of antimicrobial peptides was tested against the agricultural microbial pests A. tumefaciens, E. amylovora, E. coli, and X. citri, using OD absorbance measurement to detect bacterial growth.
(§2) Antimicrobial peptides were synthesized using solid phase peptide synthesis method and resuspended in 10% DMSO to a 1 mM stock concentration. The stock solution was aliquoted in cryovials and stored at −80° C.
(§3) An aliquot of 198 μl of the bacterial culture was added to each well in a 96-well plate and 2 μl of a 1 mM peptide stock solution was added to each well, for a final treatment concentration of 10 μM of a given peptide. Media only wells were included to control for contamination. The positive controls were 50 μg/ml oxytetracycline hydrochloride and 500 μg/ml streptomycin sulfate. A 0.1% DMSO treatment was included as a negative control.
(§4) An initial absorbance reading of the bacterial suspensions was taken at 600 nm. Then, the bacteria were grown in an incubator at 30° C. (A. tumefaciens, E. amylovora, X. citri) or 37° C. (E. coli) for 24 hours, after which the final absorbance reading was measured. Using the initial and final absorbance reading compared to negative and positive controls, the percent inhibition of the bacterial strain by given peptide treatment was determined.

[2] = test system: L. crescens; settings: 10 μM
[3] = test system: E. coli; assay: Bacterial growth inhibition by OD600 absorbance, E. coli; assay type: cell-based, E. coli (DH5-alpha); settings: peptide 10 μM, 24 hours at 37° C., OD 600 nm
Protocol: as §1, §2, §3, §4

[4] = test system: A. tumefaciens; settings: 24 h, 10 μM
[5] = test system: E. amylovora; settings: 24 h, 10 μM

Row | Molecule | growth inhibition, X. citri [1] [%] | growth inhibition, L. crescens [2] | growth inhibition, E. coli [3] [%] | growth inhibition, A. tumefaciens [4] | growth inhibition, E. amylovora [5]
1 | KFLKKAKKFGKAFVKIL [compound 83] | <90 | <90% | <90 | 99.31% | 100.00%
2 | QKRPRVRLSAWKKIWKPGIKKWIK [compound 21] | 100.00 | <90% | <90 | 96.97% | 100.00%
3 | GILKTIKSIASKVANTVQKLKRKAKNAVA [compound 20] | 100.00 | <90% | 99.03 | 100.00% | 100.00%
4 | WKKIWKKIWKPGIKKWIKKWIK [compound 24] | 99.69 | <90% | 100.00 | 97.97% | 98.38%
5 | KFWSLLKKALRLWANVL [compound 76] | 100.00 | 99.76% | 100.00 | 100.00% | 100.00%
6 | KWYKKWYKKWYKKWYK [compound 54] | 100.00 | <90% | 100.00 | 99.49% | 100.00%
7 | GIKDLLKGAAKALVKTVLK [compound 87] | <90 | <90% | <90 | 98.43% | <90%
8 | AWKETIRKYLKNEIKKKWRKAVIAW [compound 14] | 100.00 | <90% | 100.00 | 100.00% | 100.00%
9 | WFGHLYRGITKVVKHVHGLLKG [compound 40] | 100.00 | <90% | 100.00 | 100.00% | 100.00%
10 | CSCC[C@H](NC(=O)CNC(=O)[C@H](C)NC(=O)[C@H](CCC(=O)O)NC(=O)[C@H](CCCCN)NC(=O)[C@H](C)NC(=O)[C@@H](NC(=O)CNC(=O)[C@H](CCCCN)NC(=O)[C@H](CC(C)C)NC(=O)[C@H](CC(C)C)NC(=O)[C@H](CC(=O)O)NC(=O)CNC(=O)[C@H](Cc1ccccc1)NC(=O)[C@H](C)NC(=O)CN)C(C)C)C(=O)N[C@@H](CCCCN)C(=O)N[C@@H](CC(C)C)C(=O)N[C@@H](CC(C)C)C(=O)N[C@@H](CC(N)=O)C(=O)N[C@@H](CCSC)C(=O)N[C@@H](C)C(=O)N[C@@H](CCC(N)=O)C(=O)N[C@@H](CS)C(=O)N[C@@H](CCCCN)C(=O)N[C@@H](CC(C)C)C(=O)N[C@@H](CO)C(=O)NCC(=O)N[C@@H](CCCCN)C(=O)N[C@@H](CS)C(=O)O [compound 19] (H-GAFGDLLKGVAKEAGMKLLNMAQCKLSGKC-OH; N-terminus and C-terminus assumed) |  | <90% |  | <90% | <90%
11 | GIGKFLHSAKKFGKAFVGEIMNSKKKKKKKKKK [compound 5] | 100.00 | <90% | <90 | 98.68% | <90%
12 | KWKSFIKNLEKVLKKGPILANLVSIV [SEQ ID NO: 23] |  | greater than 90% |  | greater than 90% | greater than 90%
13 | LHRLVKLVAALLRGYASKVDTH [compound 53] | 100.00 | <90% | 100.00 | 100.00% | 100.00%
14 | FQRYFHRYARFLAKIWKG [compound 62] | 100.00 | <90% | <90 | 100.00% | 100.00%
15 | IWSFLIKAATKLLPSLFGGGKKDS [compound 39] | 100.00 | 92.47% | 100.00 | <90% | <90%
16 | AFWKKFFKKFFKSAKKFG [compound 67] | 100.00 | <90% | 100.00 | 99.57% | 100.00%
17 | LRFLKKALKKLF [compound 129] | <90 | <90% | <90 | 98.87% | 93.29%

Row | Molecule | growth inhibition, X. citri [1] [%] | growth inhibition, L. crescens [2] | growth inhibition, E. coli [3] [%] | growth inhibition, A. tumefaciens [4] | growth inhibition, E. amylovora [5]
18 | KWKSFIKNLEKVLKKGPILANLVSIV [compound 23] | 100.00 | 99.03% | 100.00 | 100.00% | 100.00%
19 | GWWRRTVDKVRNAGRKVAGFASKACGALGH [SEQ ID NO: 13] |  | greater than 90% |  | greater than 90% | greater than 90%
20 | GIKIAKKAITIAKKIAKIYW [compound 69] | 100.00 | <90% | 93.16 | 100.00% | 100.00%
21 | GLWSKIKKAAKTAGKAALGFVNKMV [compound 35] | 100.00 | <90% | 100.00 | 100.00% | 100.00%
22 | IRIRIRPIRIRIRP [compound 98] | <90 | <90% | 99.61 | 99.18% | 99.58%
23 | KWVKKWVKKWVK [compound 110] | 100.00 | <90% | <90 | <90% | 98.51%
24 | WLSKTAKKLWLSKTAKKLWLSKTAKKL [compound 15] | 96.25 | <90% | <90 | <90% | <90%
25 | GWKKWLRKGAKHLGQAAIKGLAS [compound 46] | 100.00 | <90% | 100.00 | 100.00% | 100.00%
26 | GLLKKWLKKWKEFKRIVGY [compound 57] | 100.00 | <90% | 100.00 | 99.99% | 100.00%
27 | GMWSKLLGHLLR [compound 138] | <90 | <90% | <90 | 100.00% | 100.00%
28 | KKLIKVFAKGFKKAKKLFKGIG [compound 52] | 100.00 | <90% | <90 | 100.00% | 100.00%
29 | KFWSLLKKALRLWANVL [SEQ ID NO: 76] |  | greater than 90% |  | greater than 90% | greater than 90%
30 | RWKIFKKPFKISIHL [compound 90] | <90 | <90% | 98.69 | 100.00% | 100.00%
31 | GILKTIKSIASKLKRKAK [compound 85] | <90 | <90% | <90 | <90% | 99.65%
32 | KKIGKKAAKKVIVKAIQAIV [compound 73] | <90 | <90% | <90 | <90% | 99.94%
33 | GYNYAKKLANLAKKFANALW [compound 66] | 100.00 | <90% | <90 | 99.99% | 97.23%
